Test results taken from patent US11028090B2 (Dong Wha Pharm. Co., Ltd., priority 2017, dated 2021).
Like-named read-outs stand apart in the source and are kept apart here.

Tests used:
[1] = target: BRD4 (BD1+BD2) bromodomain (Homo sapiens (Human), UniProt O60885); test: BRD4 binding inhibition (AlphaScreen, GST-BRD4 vs tetraacetylated histone H4 peptide)
In short: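 GST-BRD4 (BD1+BD2) and biotinylated tetraacetyl-histone H4 peptide, each at 100 nM in HEPES pH 7.4 buffer with BSA and DTT, were combined with compound. Glutathione acceptor and streptavidin donor beads were added, then incubated 30 min at room temperature in the dark. Read-out was AlphaScreen signal.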

[2] = test system: acute myelogenous leukemia cells (MV-4-11 cells); test: Cytotoxicity to acute myelogenous leukemia cells (MV-4-11 cells), CCK-8; conditions: Homo sapiens, MV4-11, 72 h
[3] = GST-BRD4 (BD1+BD2) / biotinylated acetyl-histone H4 (Lys5,8,12,16) peptide, read-out: IC50, BRD4 binding inhibition
[4] = GST-BRD4 (BD1+BD2) vs biotinylated acetyl-histone H4 peptide, AlphaScreen, read-out: BRD4 IC50
[5] = read-out: MV-4-11 Cytotoxicity IC50
[6] = read-out: IC50, cytotoxicity against acute myelogenous leukemia cells

| SMILES | IC50 [1, 3] | IC50 [1, 4] | IC50 [2, 5] | IC50 [2, 6] |
| --- | --- | --- | --- | --- |
| C=CCOC(=O)NCCCCNc1nc2cc(OCCOC)ccc2n2c(C)nnc12 [Example 370, {4-[7-(2-methoxy-ethoxy)-1-methyl-[1,2,4]triazolo[4,3-a]quinoxaline-4-ylamino]-butyl}-carbamic acid allylester] | ≤ 0.05 µM | 0.014 µM | 0.24 µM | – |
| COCCOc1ccc2c(c1)nc(NCCCCNC(=O)Cc1ccccc1)c1nnc(C)n12 [Example 420, N-{4-[7-(2-methoxy-ethoxy)-1-methyl-[1,2,4]triazolo[4,3-a]quinoxaline-4-ylamino]-butyl}-2-phenyl-acetamide] | ≤ 0.01 µM | 0.002 µM | 0.18 µM | ≤ 0.2 µM |
| COc1cc2nc(NCCCCNC(=O)c3ccccc3F)c3nnc(C)n3c2cc1OC [Example 106, N-[4-(7,8-dimethoxy-1-methyl-[1,2,4]triazolo[4,3-a]quinoxaline-4-ylamino)-butyl]-2-fluoro-benzamide] | ≤ 0.05 µM | 0.028 µM | 0.31 µM | – |
| CCC(C)OC(=O)NCCCCNc1nc2cc(OCCOC)ccc2n2c(C)nnc12 (stereo not drawn) [Example 368, {4-[7-(2-methoxy-ethoxy)-1-methyl-[1,2,4]triazolo[4,3-a]quinoxaline-4-ylamino]-butyl}-carbamic acid-sec-butylester] | ≤ 0.01 µM | 0.01 µM | 0.14 µM | ≤ 0.2 µM |
| COc1ccc2c(c1)nc(NCCCCNC(=O)C=C(C)C)c1nnc(C)n12 [Example 284, 3-methyl-butene-2-oic acid-[4-(7-methoxy-1-methyl-[1,2,4]triazolo[4,3-a]quinoxaline-4-ylamino)-butyl]-amide] | ≤ 0.01 µM | 0.009 µM | 0.173 µM | ≤ 0.2 µM |
| COc1ccc2c(c1)nc(NCCCCNC(=O)[C@@H](C(C)C)N(C)C)c1nnc(C)n12 [Example 312, 2-(R)-dimethylamino-N-[4-(7-methoxy-1-methyl-[1,2,4]triazolo[4,3-a]quinoxaline-4-ylamino)-butyl]-3-methyl-butyramide] | ≤ 0.05 µM | 0.018 µM | 0.51 µM | – |
| COCCOc1ccc2c(c1)nc(NCCCCNC(=O)[C@@H](NC(=O)OC(C)C)C(C)C)c1nnc(C)n12 [Example 400, (S)-(1-{4-[7-(2-methoxy-ethoxy)-1-methyl-[1,2,4]triazolo[4,3-a]quinoxaline-4-ylamino]-butylcarbamoyl}-2-methyl-propyl)-carbamic acid isopropylester] | ≤ 0.01 µM | 0.001 µM | 0.2 µM | – |
| Cc1nnc2c(NCCCCNC(=O)NC3CCCCC3)nc3cc(-c4nc5ccccc5n4C)ccc3n12 [Example 239, 1-cyclohexyl-3-{4-[1-methyl-7-(1-methyl-1H-benzoimidazole-2-yl)-[1,2,4]triazolo[4,3-a]quinoxaline-4-ylamino]-butyl}-urea] | ≤ 0.05 µM | 0.018 µM | 0.66 µM | – |
| Cc1nnc2c(NCCCCNC(=O)Cc3cccs3)nc3cc(N4CCOCC4)ccc3n12 [Example 507, N-[4-(1-methyl-7-morpholine-4-yl-[1,2,4]triazolo[4,3-a]quinoxaline-4-ylamino)-butyl]-2-thiophene-2-yl-acetamide] | ≤ 0.05 µM | 0.011 µM | 0.021 µM | ≤ 0.2 µM |
| Cc1nnc2c(NCCCCNC(=O)OC(C)(C)C)nc3cc(N4C[C@@H](C)O[C@@H](C)C4)ccc3n12 [Example 508, {4-[7-(2,6-dimethyl-morphonyl-4-yl)-1-methyl-[1,2,4]triazolo[4,3-a]quinoxaline-4-ylamino]-butyl}-carbamic acid-tert-butylester] | ≤ 0.05 µM | 0.029 µM | 0.575 µM | – |
| COCCOc1ccc2c(c1)nc(NCCCCNC(=O)CCC(C)C)c1nnc(C)n12 [Example 383, 4-methyl-pentanoic acid{4-[7-(2-methoxy-ethoxy)-1-methyl-[1,2,4]triazolo[4,3-a]quinoxaline-4-ylamino]-butyl}-amide] | ≤ 0.01 µM | 0.003 µM | 0.073 µM | ≤ 0.2 µM |
| COc1ccc2c(nc(NCCCCNC(=O)CC(C)C)c3nnc(C)n32)c1Cl [Example 461, [4-(6-chloro-7-methoxy-1-methyl-[1,2,4]triazolo[4,3-a]quinoxaline-4-ylamino)-butyl]-3-methyl-butyramide] | ≤ 0.05 µM | – | 0.25 µM | – |

Second part, led by results:

| IC50 [1, 3] | IC50 [1, 4] | SMILES | IC50 [2, 5] | IC50 [2, 6] |
| --- | --- | --- | --- | --- |
| – | 0.074 µM | Cc1nnc2c(NCCCCNC(=O)OC(C)(C)C)nc3ccccc3n12 [Example 1, [4-(1-methyl-[1,2,4]triazolo[4,3-a]quinoxaline-4-ylamino)-butyl]-carbamic acid-tert-butylester] | 0.98 µM | – |
| ≤ 0.05 µM | 0.036 µM | COc1ccc2c(c1)nc(NCCCCNC(=O)[C@H](C(C)C)N1CCC(O)C1)c1nnc(C)n12 (stereo partly drawn) [Example 315, 2-(S)-(3-hydroxy-pyrrolidine-1-yl)-N-[4-(7-methoxy-1-methyl-[1,2,4]triazolo[4,3-a]quinoxaline-4-ylamino)-butyl]-3-methyl-butyramide] | 0.55 µM | – |
| – | 0.052 µM | COc1cc2nc(NCCCCNC(=O)CC(C)C)c3nnc(C)n3c2cc1OCCN1CCOCC1 [Example 576, N-{4-[7-methoxy-1-methyl-8-(2-morpholine-4-yl-ethoxy)-[1,2,4]triazolo[4,3-a]quinoxaline-4-ylamino]-butyl}-3-methyl butyramide] | 0.086 µM | ≤ 0.2 µM |
| ≤ 0.05 µM | 0.024 µM | COCCOc1cc2nc(NCCCCNC(=O)OC(C)(C)C)c3nnc(C)n3c2cc1OCCOC [Example 162, {4-[7,8-bis-(2-methoxy-ethoxy)-1-methyl-[1,2,4]triazolo[4,3-a]quinoxaline-4-ylamino]-butyl}-carbamic acid-tert-butylester] | 0.64 µM | – |
| ≤ 0.05 µM | 0.015 µM | COc1ccc2c(c1)nc(NCCCCNC(=O)[C@H](OC)C(C)C)c1nnc(C)n12 [Example 300, 2-(R)-methoxy-N-[4-(7-methoxy-1-methyl-[1,2,4]triazolo[4,3-a]quinoxaline-4-ylamino)-butyl]-3-methyl-butyramide] | 0.31 µM | – |
| ≤ 0.05 µM | 0.015 µM | Cc1nnc2c(NCCCCNC(=O)NC(C)C)nc3cc(-c4nc5ccccc5n4C)ccc3n12 [Example 238, 1-isopropyl-3-{4-[1-methyl-7-(1-methyl-1H-benzoimidazole-2-yl)-[1,2,4]triazolo[4,3-a]quinoxaline-4-ylamino]-butyl}-urea] | 0.65 µM | – |
| ≤ 0.05 µM | 0.025 µM | Cc1nnc2c(NCCCCNC(=O)CC(C)(C)C)nc3cc(OC(F)(F)F)ccc3n12 [Example 272, 3,3-dimethyl-N-[4-(1-methyl-7-trifluoromethoxy-[1,2,4]triazolo[4,3-a]quinoxaline-4-ylamino)-butyl]-butyramide] | 0.81 µM | – |
| ≤ 0.01 µM | 0.005 µM | COCCOc1ccc2c(c1)nc(NCCCCNC(=O)CC(C)(C)C)c1nnc(C)n12 [Example 382, N-{4-[7-(2-methoxy-ethoxy)-1-methyl-[1,2,4]triazolo[4,3-a]quinoxaline-4-ylamino]-butyl}-3,3-dimethyl-butyramide] | 0.84 µM | – |
| ≤ 0.01 µM | 0.009 µM | Cc1nnc2c(NCCCCNC(=O)OC(C)(C)C)nc3cc(-n4ccnc4)ccc3n12 [Example 490, [4-(7-imidazole-1-yl-1-methyl-[1,2,4]triazolo[4,3-a]quinoxaline-4-ylamino)-butyl]-carbamic acid-tert-butylester] | 0.19 µM | ≤ 0.2 µM |
| ≤ 0.05 µM | 0.029 µM | COc1ccc2c(c1)nc(NCCCCNC(=O)CC(C)C)c1nnc(C(F)(F)F)n12 [Example 590, N-[4-(7-methoxy-1-trifluoromethyl-[1,2,4]triazolo[4,3-a]quinoxaline-4-ylamino)-butyl]-3-methyl-butyramide] | 0.49 µM | – |
| ≤ 0.05 µM | 0.035 µM | COc1ccc2c(c1)nc(NCCCCNC(=O)[C@@H](NC(=O)C(C)(C)C)C(C)C)c1nnc(C)n12 [Example 323, (S)-2-(2,2-dimethyl-propionylamino)-N-[4-(7-methoxy-1-methyl-[1,2,4]triazolo[4,3-a]quinoxaline-4-ylamino)-butyl]-3-methyl-butyramide] | 0.107 µM | ≤ 0.2 µM |
| ≤ 0.05 µM | – | COc1ccc2c(nc(NCCCCNC(=O)OCC(C)C)c3nnc(C)n32)c1Cl [Example 462, [4-(6-chloro-7-methoxy-1-methyl-[1,2,4]triazolo[4,3-a]quinoxaline-4-ylamino)-butyl]-carbamic acid isobutylester] | 0.6 µM | – |
| – | 0.067 µM | COc1ccc2c(c1)nc(NCCCCNC(=O)CC(C)(C)C)c1nnc(C)n12 [Example 287, N-[4-(7-methoxy-1-methyl-[1,2,4]triazolo[4,3-a]quinoxaline-4-ylamino)-butyl]-3,3-dimethyl-butyramide] | 0.125 µM | ≤ 0.2 µM |
| ≤ 0.05 µM | 0.027 µM | Cc1nnc2c(NCCCCNC(=O)CC(C)C)nc3cc(OC(C)C)ccc3n12 [Example 449, N-[-(7-isopropoxy-1-methyl-[1,2,4]triazolo[4,3-a]quinoxaline-4-ylamino)-butyl]-3-methyl-butyramide] | 0.3 µM | – |
| ≤ 0.05 µM | – | COc1cc2nc(NCCCCNC(=O)c3ccccc3OC)c3nnc(C)n3c2cc1OC [Example 97, N-[4-(7,8-dimethoxy-1-methyl-[1,2,4]triazolo[4,3-a]quinoxaline-4-ylamino)-butyl]-2-methoxy-benzamide] | 0.51 µM | – |
